According to the NIST ThermoML archive (doi:10.1021/je100801s):
± gives the expanded uncertainty stated by the source.

Legend:
[1] = for vapor or sublimation pressure: Closed cell (Static) method
[2] = Molar enthalpy of transition or fusion; conditions: Crystal; DSC

NC(=O)c1ccc(F)cc1 [4-fluorobenzamide]
[1]
Conditions | Normal melting temperature [°C] | vapor or sublimation pressure [kPa]
344.79 K, Crystal | – | 0.0007 ± 0.00012
347.76 K, Crystal | – | 0.00097 ± 0.00012
350.74 K, Crystal | – | 0.0013 ± 0.00013
353.73 K, Crystal | – | 0.00174 ± 0.00014
356.7 K, Crystal | – | 0.00236 ± 0.00015
359.68 K, Crystal | – | 0.00313 ± 0.00017
362.66 K, Crystal | – | 0.0041 ± 0.0002
365.63 K, Crystal | – | 0.00535 ± 0.00024
368.61 K, Crystal | – | 0.00699 ± 0.0003
371.58 K, Crystal | – | 0.009 ± 0.00037
374.54 K, Crystal | – | 0.01167 ± 0.00047
377.53 K, Crystal | – | 0.015 ± 0.00055
380.48 K, Crystal | – | 0.01934 ± 0.00062
383.47 K, Crystal | – | 0.02445 ± 0.00069
386.43 K, Crystal | – | 0.03134 ± 0.0008
392.35 K, Crystal | – | 0.04995 ± 0.0011
395.33 K, Crystal | – | 0.06299 ± 0.0013
398.28 K, Crystal | – | 0.07872 ± 0.0015
401.25 K, Crystal | – | 0.09854 ± 0.0018
404.24 K, Crystal | – | 0.1266 ± 0.0023
407.22 K, Crystal | – | 0.1568 ± 0.0022
410.16 K, Crystal | – | 0.1944 ± 0.0025
410.2 K, Liquid | – | 0.2629 ± 0.0031
412.16 K, Liquid | – | 0.2902 ± 0.0033
413.14 K, Crystal | – | 0.2396 ± 0.0029
414.13 K, Liquid | – | 0.3222 ± 0.0036
416.1 K, Crystal | – | 0.2948 ± 0.0034
416.11 K, Liquid | – | 0.3584 ± 0.0039
418.11 K, Liquid | – | 0.3963 ± 0.0042
419.06 K, Crystal | – | 0.3637 ± 0.004
420.05 K, Liquid | – | 0.4398 ± 0.0046
422.01 K, Crystal | – | 0.4419 ± 0.0046
422.03 K, Liquid | – | 0.4862 ± 0.005
424.02 K, Liquid | – | 0.5382 ± 0.0055
424.99 K, Crystal | – | 0.538 ± 0.0055
426 K, Liquid | – | 0.593 ± 0.0059
427.93 K, Liquid | – | 0.6524 ± 0.0065
429.92 K, Liquid | – | 0.719 ± 0.007
431.89 K, Liquid | – | 0.7879 ± 0.0076
433.87 K, Liquid | – | 0.8708 ± 0.0084
435.84 K, Liquid | – | 0.9508 ± 0.009
437.82 K, Liquid | – | 1.04 ± 0.01
Crystal, DTA | 156.04 ± 0.39 | –

Conditions | Molar enthalpy of transition or fusion [kcal/mol]
[2] | 4.66 ± 0.167
